Test results from article PMC7930822, “Phase I Trial to Evaluate the Tolerance, Pharmacokinetics and Efficacy of the Broad-Spectrum ErbB Family Inhibitor Larotinib Mesylate in Patients With Advanced Solid Tumors” (Frontiers in Pharmacology, 2021).
Where a name gives a salt, the structure may show the parent alone. Read-outs that look alike come from different tables or passages of the source.

Assay: phase I plasma pharmacokinetics (non-compartmental, LC-MS/MS)
Assay type: in vivo, human
Settings: for AUC(0-t) / AUC(0-inf) / Cmax / half-life / Tmax / Vd/F: human, plasma, po
Experimental: This was a phase I, single-center, open-label, dose-escalation study conducted at First Hospital of Jilin University, China (registration no.: ChiCTR-OPC-15007153 registered at http://www.chictr.org.cn). Larotinib mesylate hard capsules were produced and supplied by Sunshine Lake Pharma Co., Ltd (Guangdong Province, China) in different unit doses of […] under GMP condition. Seven dose levels were designed in the study: 50, 100, 150, 220, 300, 350, and 400 mg with administration stages labeled cycle 0, cycle 1, and subsequent treatment cycles. Patients received an oral single dose of larotinib mesylate after fasting during a 6-days cycle 0 to evaluate the tolerance and pharmacokinetic characteristics. After cycle 0, larotinib mesylate was continuously administered once daily for 28 days in cycle 1, and the tolerance and pharmacokinetic characteristics of multiple doses were evaluated (Figure 2). The patients who […] disease control (complete response [CR], partial response [PR], or stable disease [SD]) at the end of cycle one were permitted to participate in the subsequent 28-days treatment cycles until progressive disease (PD) or intolerance was observed.
Blood samples (4 ml) for pharmacokinetic analyses were collected in tubes containing K2EDTA anticoagulant. Blood samples were centrifuged at 3,000 rpm for 10 min at 4°C and stored at –80°C until liquid chromatography-mass spectrophotometry (LC-MS/MS) analysis. Urine and fecal samples were collected only when patients were given the150-mg and 220-mg dose levels at sampling time intervals of 0–4, 4–8, 8–12, 12–24, 24–48, 48–72, 72–96 and 96–120 h in cycle 0.
Linear mixed effects model was used to explore the dose exposure relationships. Dose proportionality was concluded if the 95% confidence interval (CI) of the linear regression slope was completely contained within the decision interval (1 + ln (0.8)/ln (8)∼1 + ln (1.25)/ln (8)). For urine and fecal data, the accumulative excretion rates of larotinib and M5 were calculated.
Bioanalysis was performed at Frontage Company (Shanghai, China). Validated high-performance LC-MS/MS method was used to quantify the concentrations of larotinib and M5 in plasma, urine and feces samples. Protein precipitation was employed for plasma, urine and feces processing. Plasma larotinib and M5 concentrations were determined using appropriate calibration curves obtained from standards in the range of 0.5–1,000 ng/ml. The interassay precision of the analysis method were 4.2–5.4% for larotinib and 3.9–4.3% for M5. The interassay accuracy of the analysis method were 100.4–103.4% for larotinib and 102.2–102.9% for M5, respectively.
Statistical analyses were performed using SAS software, version 9.2 (SAS Institute Inc., United States). Descriptive statistics were used to summarize continuous variables as cases, means with standard deviations (SDs), medians, quartiles, maximums and minimums. For categorical variables, frequencies and percentages were used. A linear mixed effects model, relating log-transformed Cmax and AUC parameters to log-transformed dose, was used to investigate dose proportionality.

SMILES: COc1cc2ncnc(Nc3ccc(F)c(Cl)c3)c2cc1OCCCN1C[C@@H]2OCCO[C@@H]2C1 [larotinib mesylate]
- linearity of pharmacokinetics (50–400 mg): No clear linear pharmacokinetic characteristic
- time to steady state (continuous once daily administration): 8 days
- AUC(0-t) (50 mg, multiple oral administration, 50 mg larotinib mesylate, steady state, read-out: AUC0-t,ss, mean (min–max)): 3570 ng·h/mL
- AUC(0-inf) (50 mg, multiple oral administration, 50 mg larotinib mesylate, steady state, read-out: AUC0-∞,ss, mean (min–max)): 4920 ng·h/mL
- Cmax (50 mg, multiple oral administration, 50 mg larotinib mesylate, steady state, read-out: Cmax,ss, mean (min–max)): 67.5 ng/mL
- half-life (50 mg, multiple oral administration, 50 mg larotinib mesylate, steady state, read-out: T1/2,ss, mean (min–max) (converted)): 61.2 h
- Tmax (50 mg, multiple oral administration, 50 mg larotinib mesylate, steady state, read-out: Tmax,ss, median (min–max)): 5 h
- Vd/F (50 mg, multiple oral administration, 50 mg larotinib mesylate, steady state, read-out: Vz/F,ss, mean (min–max)): 921 L
- AUC(0-t) (50 mg, single oral administration, 50 mg larotinib mesylate, read-out: AUC0-24, mean (min–max)): 245 ng·h/mL
- AUC(0-t) (50 mg, single oral administration, 50 mg larotinib mesylate, read-out: AUC0-t, mean (min–max)): 635 ng·h/mL
- AUC(0-inf) (50 mg, single oral administration, 50 mg larotinib mesylate, read-out: AUC0-∞, mean (min–max)): 817 ng·h/mL
- Cmax (50 mg, single oral administration, 50 mg larotinib mesylate, read-out: Cmax, mean (min–max)): 17.4 ng/mL
- half-life (50 mg, single oral administration, 50 mg larotinib mesylate, read-out: T1/2, mean (min–max) (converted)): 56.7 h
- Tmax (50 mg, single oral administration, 50 mg larotinib mesylate, read-out: Tmax, median (min–max)): 6 h
- Vd/F (50 mg, single oral administration, 50 mg larotinib mesylate, read-out: Vz/F, mean (min–max)): 5070 L
- AUC(0-t) (100 mg, multiple oral administration, 100 mg larotinib mesylate, steady state, read-out: AUC0-t,ss, mean (min–max)): 4480 ng·h/mL
- AUC(0-inf) (100 mg, multiple oral administration, 100 mg larotinib mesylate, steady state, read-out: AUC0-∞,ss, mean (min–max)): 5200 ng·h/mL
- Cmax (100 mg, multiple oral administration, 100 mg larotinib mesylate, steady state, read-out: Cmax,ss, mean (min–max)): 131 ng/mL
- half-life (100 mg, multiple oral administration, 100 mg larotinib mesylate, steady state, read-out: T1/2,ss, mean (min–max) (converted)): 44.8 h
- Tmax (100 mg, multiple oral administration, 100 mg larotinib mesylate, steady state, read-out: Tmax,ss, median (min–max)): 5 h
- Vd/F (100 mg, multiple oral administration, 100 mg larotinib mesylate, steady state, read-out: Vz/F,ss, mean (min–max)): 1400 L
- AUC(0-t) (100 mg, single oral administration, 100 mg larotinib mesylate, read-out: AUC0-24, mean (min–max)): 653 ng·h/mL
- AUC(0-t) (100 mg, single oral administration, 100 mg larotinib mesylate, read-out: AUC0-t, mean (min–max)): 1240 ng·h/mL
- AUC(0-inf) (100 mg, single oral administration, 100 mg larotinib mesylate, read-out: AUC0-∞, mean (min–max)): 1390 ng·h/mL
- Cmax (100 mg, single oral administration, 100 mg larotinib mesylate, read-out: Cmax, mean (min–max)): 64.1 ng/mL
- half-life (100 mg, single oral administration, 100 mg larotinib mesylate, read-out: T1/2, mean (min–max) (converted)): 43.9 h
- Tmax (100 mg, single oral administration, 100 mg larotinib mesylate, read-out: Tmax, median (min–max)): 5 h
- Vd/F (100 mg, single oral administration, 100 mg larotinib mesylate, read-out: Vz/F, mean (min–max)): 4580 L
- AUC(0-t) (150 mg, multiple oral administration, 150 mg larotinib mesylate, steady state, read-out: AUC0-t,ss, mean (min–max)): 18200 ng·h/mL
- AUC(0-inf) (150 mg, multiple oral administration, 150 mg larotinib mesylate, steady state, read-out: AUC0-∞,ss, mean (min–max)): 24600 ng·h/mL
- Cmax (150 mg, multiple oral administration, 150 mg larotinib mesylate, steady state, read-out: Cmax,ss, mean (min–max)): 371 ng/mL
- half-life (150 mg, multiple oral administration, 150 mg larotinib mesylate, steady state, read-out: T1/2,ss, mean (min–max) (converted)): 61.2 h
- Tmax (150 mg, multiple oral administration, 150 mg larotinib mesylate, steady state, read-out: Tmax,ss, median (min–max)): 5 h
- Vd/F (150 mg, multiple oral administration, 150 mg larotinib mesylate, steady state, read-out: Vz/F,ss, mean (min–max)): 564 L
- AUC(0-t) (150 mg, single oral administration, 150 mg larotinib mesylate, read-out: AUC0-24, mean (min–max)): 1990 ng·h/mL
- AUC(0-t) (150 mg, single oral administration, 150 mg larotinib mesylate, read-out: AUC0-t, mean (min–max)): 4780 ng·h/mL
- AUC(0-inf) (150 mg, single oral administration, 150 mg larotinib mesylate, read-out: AUC0-∞, mean (min–max)): 5660 ng·h/mL
- Cmax (150 mg, single oral administration, 150 mg larotinib mesylate, read-out: Cmax, mean (min–max)): 150 ng/mL
- half-life (150 mg, single oral administration, 150 mg larotinib mesylate, read-out: T1/2, mean (min–max) (converted)): 39.3 h
- Tmax (150 mg, single oral administration, 150 mg larotinib mesylate, read-out: Tmax, median (min–max)): 5 h
- Vd/F (150 mg, single oral administration, 150 mg larotinib mesylate, read-out: Vz/F, mean (min–max)): 1650 L
- AUC(0-t) (220 mg, multiple oral administration, 220 mg larotinib mesylate, steady state, read-out: AUC0-t,ss, mean (min–max)): 30200 ng·h/mL
- AUC(0-inf) (220 mg, multiple oral administration, 220 mg larotinib mesylate, steady state, read-out: AUC0-∞,ss, mean (min–max)): 43600 ng·h/mL
- Cmax (220 mg, multiple oral administration, 220 mg larotinib mesylate, steady state, read-out: Cmax,ss, mean (min–max)): 553 ng/mL
- half-life (220 mg, multiple oral administration, 220 mg larotinib mesylate, steady state, read-out: T1/2,ss, mean (min–max) (converted)): 75.7 h
- Tmax (220 mg, multiple oral administration, 220 mg larotinib mesylate, steady state, read-out: Tmax,ss, median (min–max)): 6 h
- Vd/F (220 mg, multiple oral administration, 220 mg larotinib mesylate, steady state, read-out: Vz/F,ss, mean (min–max)): 553 L
- AUC(0-t) (220 mg, single oral administration, 220 mg larotinib mesylate, read-out: AUC0-24, mean (min–max)): 3100 ng·h/mL
- AUC(0-t) (220 mg, single oral administration, 220 mg larotinib mesylate, read-out: AUC0-t, mean (min–max)): 6360 ng·h/mL
- AUC(0-inf) (220 mg, single oral administration, 220 mg larotinib mesylate, read-out: AUC0-∞, mean (min–max)): 8090 ng·h/mL
- Cmax (220 mg, single oral administration, 220 mg larotinib mesylate, read-out: Cmax, mean (min–max)): 278 ng/mL
- half-life (220 mg, single oral administration, 220 mg larotinib mesylate, read-out: T1/2, mean (min–max) (converted)): 68.2 h
- Tmax (220 mg, single oral administration, 220 mg larotinib mesylate, read-out: Tmax, median (min–max)): 5 h
- Vd/F (220 mg, single oral administration, 220 mg larotinib mesylate, read-out: Vz/F, mean (min–max)): 2720 L
- AUC(0-t) (300 mg, multiple oral administration, 300 mg larotinib mesylate, steady state, read-out: AUC0-t,ss, mean (min–max)): 17900 ng·h/mL
- AUC(0-inf) (300 mg, multiple oral administration, 300 mg larotinib mesylate, steady state, read-out: AUC0-∞,ss, mean (min–max)): 22600 ng·h/mL
- Cmax (300 mg, multiple oral administration, 300 mg larotinib mesylate, steady state, read-out: Cmax,ss, mean (min–max)): 438 ng/mL
- half-life (300 mg, multiple oral administration, 300 mg larotinib mesylate, steady state, read-out: T1/2,ss, mean (min–max) (converted)): 54.3 h
